The text below walks through data of US20220389422A1, “IONIZABLE CATIONIC LIPIDS FOR RNA DELIVERY” (Arcturus Therapeutics, Inc., priority 2021, published 2022).

Broadly, the pKa is the pH at which an ionisable group is half protonated.

The subject of one data set is factor VII. As to the kind of experiment: Factor VII knock down evaluation (LNP with FVII siRNA). Conditions: intravenous, plasma FVII after 48 h, relative to saline-treated controls; for FVII KD % _ 0.01 mpk: 0.01 mg/kg; for FVII KD % _ 0.03 mpk: 0.03 mg/kg. The format is in vivo, Balb/C mice. Here is the method: Lipid formulations comprising a FVII siRNA further described below were evaluated for their knockdown activity using the protocol of this example. In the FVII evaluation, seven to eight week-old, female Balb/C mice were purchased from Charles River Laboratories (Hollister, Calif.). The mice were held in a pathogen-free environment and all procedures involving the mice were performed in accordance with guidelines established by the Institutional Animal Care and Use Committee (IACUC). Lipid nanoparticles containing factor VII siRNA were administered intravenously at a dosing volume of 10 mL/kg and two dose levels (0.03 and 0.01 mg/kg). After 48 h, the mice were anesthetized with isoflurane and blood was collected retro-orbitally into Microtainer® tubes coated with 0.109 M sodium citrate buffer (BD Biosciences, San Diego, Calif.) and processed to plasma. Plasma specimens were tested for factor VII levels immediately or stored at −80° C. for later analysis. Measurement of FVII protein in plasma was determined using the colorimetric Biophen VII assay kit (Aniara Diagnostica, USA). Absorbance was measured at 405 nm and a calibration curve was generated using the serially diluted control plasma to determine levels of factor VII in plasma from treated animals, relative to the saline-treated control animals.

A short description of a further data set: Measured pKa. The format is physicochemical. The following applies: read-out: (pKa) measured pKa in parenthesis.
Another data set concerns hEPO mRNA. As to the kind of experiment: hEPO mRNA expression evaluation (hEPO-LNPs). The data set is classed as in vivo, Balb/c mice. Conditions: intravenous (tail vein), serum hEPO after 6 hr, ELISA; for EPO expression (ng/mL)_0.03 mpk: 0.03 mg/kg; for EPO expression (ng/mL)_0.1 mpk: 0.1 mg/kg. Here is the method:
Protocol for hEPO mRNA Expression Evaluation Lipid formulations comprising a hEPO mRNA below were evaluated for their ability to express hEPO in vivo according to the protocol of this example. All animal experiments were conducted using institutionally-approved protocols (IACUC). In this protocol, female Balb/c mice at least 6-8 weeks of age were purchased from Charles River Laboratory. The mice were intravenously injected with hEPO-LNPs via the tail vein with one of two dose levels of hEPO (0.1 and 0.03 mg/kg). After 6 hr, blood was collected with serum separation tubes, and the serum was isolated by centrifugation. Serum hEPO levels were then measured using an ELISA assay (Human Erythropoietin Quantikine IVD ELISA Kit, R&D Systems, Minneapolis, Md.).
On the technique in general: In an ELISA, binding on a coated surface is turned into a signal by an enzyme label.

The nature of another data set: Mouse plasma stability. Conditions: 37° C., starting concentration 1 μM, 120 min, LC-MS. The format is in vitro ADME, CD-1 mouse. Here is the method:
Lipid stock solution was prepared by dissolution of the lipid in isopropanol at the concentration of 5 mg/mL. A requisite volume of the lipid-isopropanol solution was then diluted to 100 μM concentration at a total volume of 1.0 mL with in 50:50 (v/v) ethanol/water. Ten microliters of this 100 μM solution was spiked into 1.0 mL of mouse plasma (BioIVT, Cat. No.: MSE00PLNHUNN, CD-1 mouse, anticoagulant: sodium heparin, not filtered) that was pre-warmed to 37° C. and was stirred at 50 rpm with a magnetic stir bar. The starting concentration of lipids in plasma was thus 1 μM. At time points 0, 15, 30, 45, 60 and 120 min, 0.1 mL of the plasma was withdrawn from the reaction mixture and the protein was precipitated by adding 0.9 mL of ice-cold 4:1 (v/v) acetonitrile/methanol with 1 μg/mL of a selected internal standard lipid added. After filtration through a 0.45 micron 96-well filtering plate, the filtrates were analyzed by LC-MS (Thermo Fisher's Vanquish UHPLC-LTQ XL linear ion trap Mass Spectrometer); Waters XBridge BEH Shield RP18 2.5 µm (2.1×100 mm) column with its matching guard column. Mobile phase A was 0.1% formic acid in water, and mobile phase B was 0.1% formic acid in 1:1 (v/v) acetonitrile/methanol. Flow rate was […]. Elution gradient was: Time 0-1 min: 10% B; 1-6 min: 10%-95% B; 6-8.5 min: 95% B; 8.5-9 min: 95%-10% B; 9-10 min: 10% B. Mass spectrometry was in positive scanning mode from 600-1100 m/z. The peak of the molecular ion of the lipids was integrated in the extracted ion chromatography
(XIC) using Xcalibur software (Thermo Fisher). The relative peak area compared to T=0, after normalization by the peak area of the internal standard, was used as the percentage of the lipid remaining at each time point. T1/2 values were calculated using the first-order decay model.

Data set [1] can be described thus: In vivo biodegradability assay (lipid in mouse liver). Set-up: species or system mice. The following applies: for concentration at 48 h: 0.03 mg/Kg dose, read-out: In vivo degradability ng/g of tissue at 48 h_0.03 mpk; for In vivo degradability ng/tissue at 48 h_0.1 mpk: 48 h, 0.1 mg/Kg dose. Here is the method:
In vivo biodegradability assay was performed to assess the biodegradability of lipids in the LNP. Briefly, mice were injected with either 0.1 or 0.03 mg/Kg dose and after 24 or 48 hours mice livers were collected. To measure the concentration of lipids in the mouse liver, liver samples were homogenized in appropriate buffer in 1-10 dilution and mixed with the same amount of stabilized plasma. The samples were then mixed with organic solvents spiked with internal standard to precipitate proteins. After centrifugation, supernatant was diluted further with organic solvent before sample analysis by LC-MS. In LC-MS analysis, positive electrospray ionization was used, and multiple reaction monitoring (MRM) parameters were set up to specifically target the lipid analyte and internal standard. Calibration standards were prepared in stabilized plasma and mixed with same amount of homogenization buffer before protein precipitation. Quality control samples with known amounts of lipid was prepared in blank liver homogenate to monitor the precision and accuracy of the assay.

`CCCCCCCC(CCCCCCC)OC(=O)CCC(CCC(=O)OC(CCCCCCC)CCCCCCC)COC(=O)CCCN(C)C` [ATX-201]: in the data set on factor VII, the “FVII KD % _ 0.01 mpk” value stood at 87.4% and the “FVII KD % _ 0.03 mpk” value was 97.5%. For the same molecule, the pKa in the data set “Measured pKa” came to 6.74. Besides, in the data set on hEPO mRNA, the “EPO expression (ng/mL)_0.03 mpk” value turned out to be 523 ng/mL and the “EPO expression (ng/mL)_0.1 mpk” value is reported as 680 ng/mL.

Regarding `CCCCCCCC(CCCCCCC)OC(=O)CCCC(CCCC(=O)OC(CCCCCCC)CCCCCCC)COC(=O)CCCN(C)C` [ATX-200, 1,9-bis(pentadecan-8-yl) 5-([[4-(dimethylamino)butanoyl]oxy]methyl) nonanedioate], in the data set on factor VII, the “FVII KD % _ 0.01 mpk” value was determined as 87.1% and the “FVII KD % _ 0.03 mpk” value is 97.5%. In addition, the pKa in “Measured pKa” was 6.78. In addition, in the data set on hEPO mRNA, the “EPO expression (ng/mL)_0.03 mpk” value is 494 ng/mL and the “EPO expression (ng/mL)_0.1 mpk” value worked out at 828 ng/mL.

In the case of `CCCCCCCC(CCCCCCC)OC(=O)CCCC(CCCC(=O)OC(CCCCC)CCCCC)OC(=O)CCCN(C)C` (centres unmarked) [ATX-210], in the data set on factor VII, the “FVII KD % _ 0.01 mpk” value worked out at 87% and the “FVII KD % _ 0.03 mpk” value came out at 97.65%. The pKa in “Measured pKa” stood at 6.53. In the data set with hEPO mRNA, the “EPO expression (ng/mL)_0.03 mpk” value amounted to 329 ng/mL and the “EPO expression (ng/mL)_0.1 mpk” value is reported as 662 ng/mL.

With `CCCCCC(CC)C(=O)OCCCCCCCCCC(CCCCCCCCCOC(=O)C(CC)CCCCC)OC(=O)CCCN(C)C` (centres unmarked) [Compound-10111, reference compound], in the data set on factor VII, the “FVII KD % _ 0.01 mpk” value is 89% and the “FVII KD % _ 0.03 mpk” value was 95%. Moreover, the “Percent of lipid remaining in mouse plasma after 2 h” value (“Percent of lipid remaining” below) in the data set “Mouse plasma stability” was 91%. In addition, in data set [1], the concentration at 48 h stood at 566 ng/g and the “In vivo degradability ng/tissue at 48 h_0.1 mpk” value (from here on “In vivo degradability ng/tissue”) is on record as 2613 ng/tissue. In addition, in the data set with hEPO mRNA, the “EPO expression (ng/mL)_0.03 mpk” value is given as 105 ng/mL and the “EPO expression (ng/mL)_0.1 mpk” value is given as 213 ng/mL.

For `CCCCCCCC(CCCCCCC)OC(=O)CCCC(CCCC(=O)OC(CCCCCCC)CCCCCCC)OC(=O)CCCN(C)C` [ATX-193, 1,9-bis(pentadecan-8-yl)5-[[4-(dimethylamino)butanoyl]oxy] nonanedioate], in the data set with factor VII, the “FVII KD % _ 0.01 mpk” value stood at 95.6% and the “FVII KD % _ 0.03 mpk” value is given as 100%. For the same molecule, the pKa in the data set “Measured pKa” is 6.35. In the data set with hEPO mRNA, the “EPO expression (ng/mL)_0.03 mpk” value is given as 264 ng/mL and the “EPO expression (ng/mL)_0.1 mpk” value amounted to 498 ng/mL.

`CCCCCCC(CCCCCC)OC(=O)CCCCCC(CCCCCC(=O)OC(CCCCCC)CCCCCC)OC(=O)CCCN(C)C` [ATX-209]: in the data set with factor VII, the “FVII KD % _ 0.01 mpk” value is 65.7% and the “FVII KD % _ 0.03 mpk” value turned out to be 90.6%. Moreover, in “Mouse plasma stability”, the “Percent of lipid remaining” value was determined as 80%. For the same molecule, in data set [1], the concentration at 48 h is 0 ng/g and the “In vivo degradability ng/tissue” value worked out at 647 ng/tissue. Besides, in the data set with hEPO mRNA, the “EPO expression (ng/mL)_0.03 mpk” value was determined as 65 ng/mL and the “EPO expression (ng/mL)_0.1 mpk” value was 290 ng/mL.

Take `CCCCCCCC(CCCCCCC)OC(=O)CCCC(CCCC(=O)OC(CCCCCCC)CCCCCCC)SC(=O)CCCN(C)C` [ATX-202]: in the data set with factor VII, the “FVII KD % _ 0.01 mpk” value worked out at 61.42% and the “FVII KD % _ 0.03 mpk” value was 83.22%. Also, the pKa in the data set “Measured pKa” is 6.17. Further, in the data set with hEPO mRNA, the “EPO expression (ng/mL)_0.03 mpk” value was found to be 447 ng/mL and the “EPO expression (ng/mL)_0.1 mpk” value is given as 531 ng/mL.

Consider `CCCCCCC(CCCCCC)COC(=O)CCCCCC(CCCCCC(=O)OCC(CCCCCC)CCCCCC)OC(=O)CCCN(C)C` [ATX-231], for which, in the data set with factor VII, the “FVII KD % _ 0.01 mpk” value stood at 72% and the “FVII KD % _ 0.03 mpk” value was determined as 86%. In “Mouse plasma stability”, the “Percent of lipid remaining” value amounted to 89%. In data set [1], the concentration at 48 h worked out at 0 ng/g and the “In vivo degradability ng/tissue” value is given as 0 ng/tissue. For the same molecule, in the data set with hEPO mRNA, the “EPO expression (ng/mL)_0.03 mpk” value came to 1706 ng/mL and the “EPO expression (ng/mL)_0.1 mpk” value worked out at 5446 ng/mL.

Consider `CCCCCCCC(CCCCCCC)COC(=O)CCCC(CCCC(=O)OC(CCCCCCC)CCCCCCC)OC(=O)CCCN(C)C` (centres unmarked) [ATX-232], for which, in the data set on factor VII, the “FVII KD % _ 0.01 mpk” value is listed as 74% and the “FVII KD % _ 0.03 mpk” value was determined as 90%. Moreover, in the data set on hEPO mRNA, the “EPO expression (ng/mL)_0.03 mpk” value was 2115 ng/mL and the “EPO expression (ng/mL)_0.1 mpk” value amounted to 510 ng/mL.
